In ChEMBL document CHEMBL5523713, “Development of novel N-aryl-2,4-bithiazole-2-amine-based CYP1B1 degraders for reversing drug resistance” (Eur J Med Chem, 2024):
Peptide text beside a SMILES is read from it. * marks the point of attachment. Cbz = O=C(OCc1ccccc1)*

Columns and labels:
Type in all cases: ADME, cell-based
[1] = molecular target: T1, von Hippel-Lindau disease tumor suppressor/Cytochrome P450 1B1 (Homo sapiens, UniProt Q16678+P40337); assay: PROTAC activity at VHL/CYP1B1 in human A549/Taxol cells assessed as degradation by measuring fold change in remaining CYP1B1 level at 1 nM incubated for 24 hrs by Western blotting analysis (reference value: 1); settings: 0.001 µM
T1 sequence (Q16678 whole entry): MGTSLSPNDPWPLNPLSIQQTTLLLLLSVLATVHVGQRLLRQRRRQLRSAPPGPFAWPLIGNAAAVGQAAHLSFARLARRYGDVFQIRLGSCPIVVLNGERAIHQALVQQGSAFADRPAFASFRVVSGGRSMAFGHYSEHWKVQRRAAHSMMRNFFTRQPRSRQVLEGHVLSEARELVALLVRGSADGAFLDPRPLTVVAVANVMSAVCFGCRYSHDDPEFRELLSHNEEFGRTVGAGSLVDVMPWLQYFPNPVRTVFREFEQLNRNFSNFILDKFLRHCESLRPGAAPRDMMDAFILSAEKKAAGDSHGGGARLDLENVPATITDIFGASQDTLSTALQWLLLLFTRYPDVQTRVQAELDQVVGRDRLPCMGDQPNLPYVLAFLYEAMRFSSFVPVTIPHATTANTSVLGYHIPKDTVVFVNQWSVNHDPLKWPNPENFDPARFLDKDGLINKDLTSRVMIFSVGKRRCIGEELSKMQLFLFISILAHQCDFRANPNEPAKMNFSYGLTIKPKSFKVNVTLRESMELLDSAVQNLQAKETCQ
T1 sequence (P40337 whole entry): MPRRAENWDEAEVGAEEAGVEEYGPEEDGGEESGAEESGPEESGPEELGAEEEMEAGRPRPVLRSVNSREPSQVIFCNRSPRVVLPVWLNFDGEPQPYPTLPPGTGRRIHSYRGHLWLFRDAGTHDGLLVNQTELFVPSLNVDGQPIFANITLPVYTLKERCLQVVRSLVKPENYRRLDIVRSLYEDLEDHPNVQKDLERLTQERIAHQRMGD

[2] = molecular target: T1, von Hippel-Lindau disease tumor suppressor/Cytochrome P450 1B1; assay: PROTAC activity at VHL/CYP1B1 in human A549/Taxol cells assessed as degradation by measuring fold change in remaining CYP1B1 level at 1000 nM incubated for 24 hrs by Western blotting analysis (reference value: 1); settings: 1 µM
[3] = molecular target: T1, von Hippel-Lindau disease tumor suppressor/Cytochrome P450 1B1; assay: PROTAC activity at VHL/CYP1B1 in human A549/Taxol cells assessed as reduction in CYP1B1 level at 1 uM incubated for 24 hrs by Western blotting analysis

| Compound | fold change (FC) [1] | fold change (FC) [2] | Activity [3] |
| --- | --- | --- | --- |
| Cc1ncsc1-c1ccc([C@H](C)NC(=O)[C@@H]2C[C@@H](O)CN2C(=O)[C@@H](NC(=O)CCCCCCCCCOc2ccccc2-c2csc(-c3csc(Nc4ccc(Cl)cc4)n3)n2)C(C)(C)C)cc1 | 1.5 | 1.5 |  |
| Cc1ncsc1-c1ccc([C@H](C)NC(=O)[C@@H]2C[C@@H](O)CN2C(=O)[C@@H](NC(=O)CCCCCOc2ccccc2-c2csc(-c3csc(Nc4ccc(Cl)cc4)n3)n2)C(C)(C)C)cc1 | 0.5 | 1.5 |  |
| CC(C)C[C@@H](C=O)NC(=O)[C@H](CC(C)C)NC(=O)[C@H](CC(C)C)NC(=O)OCc1ccccc1 [MG-132] (Cbz-Leu-Leu-Leu-aldehyde) |  |  | Not Active |
| Cc1ncsc1-c1ccc([C@H](C)NC(=O)[C@@H]2C[C@@H](O)CN2C(=O)[C@@H](NC(=O)CCCCCCCCCCCOc2ccccc2-c2csc(-c3csc(Nc4ccc(Cl)cc4)n3)n2)C(C)(C)C)cc1 | 0.9 | 2 |  |
